Experimental data published in the NIST ThermoML archive (doi:10.1021/je901067c).
Numbers after ± are expanded uncertainties.

Columns and labels:
[1] = refractive index (Na D-line) (dimensionless); xn = mol fraction of the nth substance listed; conditions: 101 kPa, Liquid, Standard Abbe refractometry
[2] = xn = mol fraction of the nth substance listed; conditions: 101 kPa, Liquid; for viscosity: Capillary tube (Ostwald / Ubbelohde) method

Question: With `CCCC(C)O` (centres undefined) [pentan-2-ol] + CCC(C)=O as the compound, how does the refractive index ([1]; 298.15 K, x2 = 0) read?
Answer: 1.4032 ± 0.0009

Question: And the refractive index ([1]; 298.15 K, x2 = 0.0824)?
Answer: 1.4014 ± 0.0009

Question: What about the refractive index ([1]; 298.15 K, x2 = 0.1612) of the same compound?
Answer: 1.3998 ± 0.0009

Question: And the refractive index ([1]; 298.15 K, x2 = 0.2401)?
Answer: 1.398 ± 0.0009

Question: What about the refractive index ([1]; 298.15 K, x2 = 0.3519) of the same compound?
Answer: 1.3952 ± 0.0009

Question: And the refractive index ([1]; 298.15 K, x2 = 0.4396)?
Answer: 1.3929 ± 0.0009

Question: What about the refractive index ([1]; 298.15 K, x2 = 0.5608) of the same compound?
Answer: 1.3895 ± 0.0009

Question: And the refractive index ([1]; 298.15 K, x2 = 0.6494)?
Answer: 1.3868 ± 0.0009

Question: What about the refractive index ([1]; 298.15 K, x2 = 0.7403) of the same compound?
Answer: 1.384 ± 0.0009

Question: And the refractive index ([1]; 298.15 K, x2 = 0.8491)?
Answer: 1.3803 ± 0.0009

Question: What about the refractive index ([1]; 298.15 K, x2 = 0.9384) of the same compound?
Answer: 1.3772 ± 0.0009

Question: And the refractive index ([1]; 308.15 K, x2 = 0)?
Answer: 1.399 ± 0.0009

Question: What about the refractive index ([1]; 308.15 K, x2 = 0.0824) of the same compound?
Answer: 1.3974 ± 0.0009

Question: What about the refractive index ([1]; 308.15 K, x2 = 0.1612) of the same compound?
Answer: 1.3959 ± 0.0009

Question: What about the refractive index ([1]; 308.15 K, x2 = 0.2401) of the same compound?
Answer: 1.3941 ± 0.0009

Question: What about the refractive index ([1]; 308.15 K, x2 = 0.3519) of the same compound?
Answer: 1.3914 ± 0.0009

Question: And the refractive index ([1]; 308.15 K, x2 = 0.4396)?
Answer: 1.389 ± 0.0009

Question: What about the refractive index ([1]; 308.15 K, x2 = 0.5608) of the same compound?
Answer: 1.3854 ± 0.0009

Question: What about the refractive index ([1]; 308.15 K, x2 = 0.6494) of the same compound?
Answer: 1.3826 ± 0.0009

Question: What about the refractive index ([1]; 308.15 K, x2 = 0.7403) of the same compound?
Answer: 1.3796 ± 0.0009

Question: And the refractive index ([1]; 308.15 K, x2 = 0.8491)?
Answer: 1.3757 ± 0.0009

Question: What about the refractive index ([1]; 308.15 K, x2 = 0.9384) of the same compound?
Answer: 1.3724 ± 0.0009

Question: What about the refractive index ([1]; 318.15 K, x2 = 0) of the same compound?
Answer: 1.395 ± 0.0009

Question: And the refractive index ([1]; 318.15 K, x2 = 0.0824)?
Answer: 1.3937 ± 0.0009

Question: What about the refractive index ([1]; 318.15 K, x2 = 0.1612) of the same compound?
Answer: 1.3923 ± 0.0009

Question: And the refractive index ([1]; 318.15 K, x2 = 0.2401)?
Answer: 1.3906 ± 0.0009

Question: What about the refractive index ([1]; 318.15 K, x2 = 0.3519) of the same compound?
Answer: 1.3877 ± 0.0009

Question: And the refractive index ([1]; 318.15 K, x2 = 0.4396)?
Answer: 1.3852 ± 0.0009

Question: What about the refractive index ([1]; 318.15 K, x2 = 0.5608) of the same compound?
Answer: 1.3813 ± 0.0009

Question: And the refractive index ([1]; 318.15 K, x2 = 0.6494)?
Answer: 1.3782 ± 0.0009

Question: And the refractive index ([1]; 318.15 K, x2 = 0.7403)?
Answer: 1.375 ± 0.0009

Question: And the refractive index ([1]; 318.15 K, x2 = 0.8491)?
Answer: 1.3711 ± 0.0009

Question: What about the refractive index ([1]; 318.15 K, x2 = 0.9384) of the same compound?
Answer: 1.3679 ± 0.0009

Question: And the viscosity ([2]; 298.15 K, x2 = 0)?
Answer: 3.478 ± 0.026 mPa·s

Question: What about the viscosity ([2]; 298.15 K, x2 = 0.0824) of the same compound?
Answer: 2.664 ± 0.02 mPa·s

Question: What about the viscosity ([2]; 298.15 K, x2 = 0.1612) of the same compound?
Answer: 2.066 ± 0.016 mPa·s

Question: What about the viscosity ([2]; 298.15 K, x2 = 0.2401) of the same compound?
Answer: 1.69 ± 0.013 mPa·s

Question: What about the viscosity ([2]; 298.15 K, x2 = 0.3519) of the same compound?
Answer: 1.347 ± 0.011 mPa·s

Question: And the viscosity ([2]; 298.15 K, x2 = 0.4396)?
Answer: 1.131 ± 0.009 mPa·s

Question: And the viscosity ([2]; 298.15 K, x2 = 0.5608)?
Answer: 0.886 ± 0.008 mPa·s

Question: And the viscosity ([2]; 298.15 K, x2 = 0.6494)?
Answer: 0.743 ± 0.007 mPa·s

Question: And the viscosity ([2]; 298.15 K, x2 = 0.7403)?
Answer: 0.623 ± 0.006 mPa·s

Question: What about the viscosity ([2]; 298.15 K, x2 = 0.8491) of the same compound?
Answer: 0.505 ± 0.006 mPa·s

Question: What about the viscosity ([2]; 298.15 K, x2 = 0.9384) of the same compound?
Answer: 0.436 ± 0.005 mPa·s

Question: And the mass density ([2]; 298.15 K, x2 = 0)?
Answer: 805.3 ± 0.56 kg/m3

Question: And the mass density ([2]; 298.15 K, x2 = 0.0824)?
Answer: 804 ± 0.56 kg/m3

Question: And the mass density ([2]; 298.15 K, x2 = 0.1612)?
Answer: 802.99 ± 0.56 kg/m3

Question: What about the mass density ([2]; 298.15 K, x2 = 0.2401) of the same compound?
Answer: 802.04 ± 0.56 kg/m3

Question: What about the mass density ([2]; 298.15 K, x2 = 0.3519) of the same compound?
Answer: 800.97 ± 0.56 kg/m3

Question: What about the mass density ([2]; 298.15 K, x2 = 0.4396) of the same compound?
Answer: 800.31 ± 0.56 kg/m3

Question: What about the mass density ([2]; 298.15 K, x2 = 0.5608) of the same compound?
Answer: 799.65 ± 0.56 kg/m3

Question: And the mass density ([2]; 298.15 K, x2 = 0.6494)?
Answer: 799.34 ± 0.56 kg/m3

Question: What about the mass density ([2]; 298.15 K, x2 = 0.7403) of the same compound?
Answer: 799.2 ± 0.56 kg/m3

Question: What about the mass density ([2]; 298.15 K, x2 = 0.8491) of the same compound?
Answer: 799.26 ± 0.56 kg/m3

Question: And the mass density ([2]; 298.15 K, x2 = 0.9384)?
Answer: 799.49 ± 0.56 kg/m3

Question: What about the viscosity ([2]; 308.15 K, x2 = 0) of the same compound?
Answer: 2.361 ± 0.018 mPa·s

Question: And the viscosity ([2]; 308.15 K, x2 = 0.0824)?
Answer: 1.778 ± 0.014 mPa·s

Question: And the viscosity ([2]; 308.15 K, x2 = 0.1612)?
Answer: 1.381 ± 0.011 mPa·s

Question: And the viscosity ([2]; 308.15 K, x2 = 0.2401)?
Answer: 1.105 ± 0.009 mPa·s

Question: And the viscosity ([2]; 308.15 K, x2 = 0.3519)?
Answer: 0.865 ± 0.008 mPa·s

Question: And the viscosity ([2]; 308.15 K, x2 = 0.4396)?
Answer: 0.731 ± 0.007 mPa·s

Question: What about the viscosity ([2]; 308.15 K, x2 = 0.5608) of the same compound?
Answer: 0.587 ± 0.006 mPa·s

Question: What about the viscosity ([2]; 308.15 K, x2 = 0.6494) of the same compound?
Answer: 0.518 ± 0.006 mPa·s

Question: And the viscosity ([2]; 308.15 K, x2 = 0.7403)?
Answer: 0.462 ± 0.006 mPa·s

Question: And the viscosity ([2]; 308.15 K, x2 = 0.8491)?
Answer: 0.406 ± 0.005 mPa·s

Question: And the viscosity ([2]; 308.15 K, x2 = 0.9384)?
Answer: 0.371 ± 0.005 mPa·s

Question: And the mass density ([2]; 308.15 K, x2 = 0)?
Answer: 797 ± 0.57 kg/m3

Question: What about the mass density ([2]; 308.15 K, x2 = 0.0824) of the same compound?
Answer: 795.54 ± 0.57 kg/m3

Question: What about the mass density ([2]; 308.15 K, x2 = 0.1612) of the same compound?
Answer: 794.34 ± 0.57 kg/m3

Question: What about the mass density ([2]; 308.15 K, x2 = 0.2401) of the same compound?
Answer: 793.29 ± 0.57 kg/m3

Question: What about the mass density ([2]; 308.15 K, x2 = 0.3519) of the same compound?
Answer: 791.97 ± 0.57 kg/m3

Question: And the mass density ([2]; 308.15 K, x2 = 0.4396)?
Answer: 791.07 ± 0.57 kg/m3

Question: And the mass density ([2]; 308.15 K, x2 = 0.5608)?
Answer: 790.15 ± 0.58 kg/m3

Question: What about the mass density ([2]; 308.15 K, x2 = 0.6494) of the same compound?
Answer: 789.63 ± 0.58 kg/m3

Question: And the mass density ([2]; 308.15 K, x2 = 0.7403)?
Answer: 789.23 ± 0.58 kg/m3

Question: What about the mass density ([2]; 308.15 K, x2 = 0.8491) of the same compound?
Answer: 789.02 ± 0.58 kg/m3

Question: And the mass density ([2]; 308.15 K, x2 = 0.9384)?
Answer: 789.09 ± 0.58 kg/m3

Question: And the viscosity ([2]; 318.15 K, x2 = 0)?
Answer: 1.772 ± 0.014 mPa·s

Question: And the viscosity ([2]; 318.15 K, x2 = 0.0824)?
Answer: 1.344 ± 0.011 mPa·s

Question: What about the viscosity ([2]; 318.15 K, x2 = 0.1612) of the same compound?
Answer: 1.094 ± 0.009 mPa·s

Question: And the viscosity ([2]; 318.15 K, x2 = 0.2401)?
Answer: 0.897 ± 0.008 mPa·s

Question: And the viscosity ([2]; 318.15 K, x2 = 0.3519)?
Answer: 0.721 ± 0.007 mPa·s

Question: And the viscosity ([2]; 318.15 K, x2 = 0.4396)?
Answer: 0.642 ± 0.006 mPa·s

Question: And the viscosity ([2]; 318.15 K, x2 = 0.5608)?
Answer: 0.514 ± 0.006 mPa·s

Question: What about the viscosity ([2]; 318.15 K, x2 = 0.6494) of the same compound?
Answer: 0.457 ± 0.006 mPa·s

Question: And the viscosity ([2]; 318.15 K, x2 = 0.7403)?
Answer: 0.407 ± 0.005 mPa·s

Question: And the viscosity ([2]; 318.15 K, x2 = 0.8491)?
Answer: 0.366 ± 0.005 mPa·s

Question: And the viscosity ([2]; 318.15 K, x2 = 0.9384)?
Answer: 0.338 ± 0.005 mPa·s

Question: And the mass density ([2]; 318.15 K, x2 = 0)?
Answer: 788.37 ± 0.58 kg/m3

Question: What about the mass density ([2]; 318.15 K, x2 = 0.0824) of the same compound?
Answer: 786.83 ± 0.58 kg/m3

Question: What about the mass density ([2]; 318.15 K, x2 = 0.1612) of the same compound?
Answer: 785.5 ± 0.58 kg/m3

Question: And the mass density ([2]; 318.15 K, x2 = 0.2401)?
Answer: 784.32 ± 0.58 kg/m3

Question: What about the mass density ([2]; 318.15 K, x2 = 0.3519) of the same compound?
Answer: 782.76 ± 0.59 kg/m3

Question: What about the mass density ([2]; 318.15 K, x2 = 0.4396) of the same compound?
Answer: 781.66 ± 0.59 kg/m3

Question: And the mass density ([2]; 318.15 K, x2 = 0.5608)?
Answer: 780.47 ± 0.59 kg/m3

Question: And the mass density ([2]; 318.15 K, x2 = 0.6494)?
Answer: 779.91 ± 0.59 kg/m3

Question: And the mass density ([2]; 318.15 K, x2 = 0.7403)?
Answer: 779.15 ± 0.59 kg/m3

Question: And the mass density ([2]; 318.15 K, x2 = 0.8491)?
Answer: 778.67 ± 0.59 kg/m3

Question: What about the mass density ([2]; 318.15 K, x2 = 0.9384) of the same compound?
Answer: 778.55 ± 0.59 kg/m3
